# Assay results reported in patent US11135263B2 (priority 2014, dated 2021).
# Entries after “also recorded” stand apart in the source; their conditions may differ. Like-named read-outs stand apart in the source and are kept apart here.
# Experiments:
# S. aureus 6850 [1] = test: bacterial internalisation (uptake) into A549 cells after 4 h preincubation; conditions: 2.5 ng/ml TNF-alpha, stimulation 4 hours prior bacterial infection; 120 min
# S. aureus USA300 = test: as above; conditions: 2.5 ng/ml TNF-alpha, stimulation 4 hours prior bacterial infection; MOI=5; 120 min
# [2] = tested on: avian influenza virus A/FPV/Bratislava/79 (H7N7); format: cell-based; conditions: for virus titers: 18 hrs; for IV titers: 2 μM tamiflu vs Hepes, in absence or presence of S. aureus 6850
# S. aureus 6850 [3] = format: cell-based, Staphylococcus aureus
# [4] = tested on: Staphylococcus aureus 6850; test: mouse co-infection model, bacterial titers in lung homogenate; format: in vivo, Balb/C mice; conditions: S. aureus super-infection day 3, lungs day 4
# Procedure: (§1) FIG. 17: Administration of U0126 leads to reduced bacterial titers in vivo independent of viral titers. 12 weeks old Balb/C mice were infected with 50 PFU of the influenza virus strain A/Puerto Rico/8/34 (PR8, H1N1) on day 0 (anesthesized with Isoflurane). Starting on day 1 mice were treated daily with i.p. injection of 30 mg/kg/day U0126 or solvent control (10% DMSO, 30% Cremophor EL, 60% PBS). On day 3 mice were infected with 5*10^7 CFU of Staphylococcus aureus 6850 under anesthesia with Isoflurane and directly treated with U0126 or solvent control. On day 4 lungs were removed and homogenized in PBS (0.1 g per 1000 μl PBS). For calculation of bacterial titers serial dilutions of the homogenate were plated on BHI agar. For determination of viral titers a standard plaque assay was performed. Statistical analysis was done using Mann-Whitney U Test (* p<0.05).
# (§2) 8 weeks old Balb/C mice (5 per group) were infected with 50 PFU of influenza virus strain A/Puerto Rico/8/34 (PR8, H1N1) on day 0 (anesthesized with Isoflurane). 6 hrs post viral infection mice were treated with oral administration of 10 mg/kg/day Cobimetinib or solvent control (10% DMSO, 5% Tween 20, 85% PBS). Treatment was then performed daily. On day 3 mice were infected with 5*10^7 CFU of Staphylococcus aureus 6850 under anesthesia with Isoflurane and 6 hrs later treated with Cobimetinib or solvent control. […]
# [5] = tested on: influenza virus strain A/Puerto Rico/8/34 (PR8, H1N1); test: mouse co-infection model, viral titers in lung homogenate (plaque assay); format: in vivo, Balb/C mice; conditions: lungs day 4
# Procedure: as §1, §2
# [6] = shown recently; cited from earlier work
# [7] = tested on: influenza virus A/Puerto Rico/8/34 (H1N1); format: cell-based
# S. aureus 6850 [8] = format: cell-based, Staphylococcus aureus; remark: listed apart in the source
# [9] = tested on: Human lung epithelial cells (A549); format: cell-based
# CCL3 = conditions: 50 μM U0126; H3N2 (MOI=5) with or without S. aureus 6850 (MOI=50); 8 hrs; preliminary results
# CCL5 = conditions: 50 μM U0126; H3N2 (MOI=5) with or without S. aureus 6850 (MOI=50); 8 hrs; preliminary results
# ERK-1/2 phosphorylation = conditions: 50 μM U0126; western blot, 8 hrs
# [10] = […], U0126 50 μM, SB202190 10 μM or LG-ASA 5 mM vs solvent control
# [11] = […], U0126 50 μM, SB202190 10 μM or LG-ASA 5 mM vs solvent control, listed as SB02190
molecule,measurement,setting,value
TNF-α,bacterial uptake upon NFκB activation,S. aureus 6850 [1],enhanced uptake
same,bacterial uptake upon NFκB activation,S. aureus USA300,enhanced uptake
"O=C(NOCC1CC1)c1ccc(F)c(F)c1Nc1ccc(I)cc1Cl [CI-1040, 2-(2-chloro-4-iodophenylamino)-N-(cyclopropylmethoxy)-3,4-difluorobenzamide]",virus titers,"[2]; 10 μM CI-1040 vs solvent, singular and co-infection with S. aureus 6850 (MOI=0.1), MOI=0.01",reduction; also recorded: reduces
CCOC(=O)C1=C[C@@H](OC(CC)CC)[C@H](NC(C)=O)[C@@H](N)C1 [Oseltamivir],IV titers,[2]; MOI=0.001,significantly reduced
same,IV titers,"[2]; MOI=0.001, listed as tamiflu",reduces
same,intracellular bacterial amounts (S. aureus load),S. aureus 6850 [3],rather increased; also recorded: enhances
"O=C(c1ccc(F)c(F)c1Nc1ccc(I)cc1F)N1CC(O)([C@@H]2CCCCN2)C1 [Cobimetinib, [3,4-difluoro-2-[(2-fluoro-4-iodophenyl)amino]phenyl] [3-hydroxy-3-[(2S)-2-piperidinyl]-1-azetidinyl]methanone]",bacterial titers in vivo (lung),"[4]; Cobimetinib 10 mg/kg/day oral, daily",slight but clearly detectable reduction; also recorded: reduces
same,viral titers in vivo (lung),"[5]; Cobimetinib 10 mg/kg/day oral, daily from 6 hrs post viral infection",slight but clearly detectable reduction; also recorded: reduces
same,maximal tolerated dose,[6],30 mg/kg/day
N#CC(=C(/N)Sc1ccccc1N)/C(C#N)=C(\N)Sc1ccccc1N [U0126],IV replication (IV titers),[7],inhibitory effects; also recorded: reduces
same,viral titers in presence of S. aureus,[7],reduces
same,virus titers,"[2]; 50 μM U0126 vs solvent, co-infection with S. aureus 6850 (MOI=0.1)",reduced
same,virus titers,"[2]; 50 μM U0126 vs solvent, singular infection, MOI=0.01",significant reduction
same,viral titers in presence of S. aureus,"[2]; co-infection with S. aureus 6850 (MOI=0.5), virus MOI=0.001, 50 μM U0126 vs DMSO",reduces
same,IV replication (IV titers),"[2]; singular infection, MOI=0.001, 50 μM U0126 vs DMSO",inhibitory effects; also recorded: reduces
same,bacterial titers of internalized S. aureus 6850,S. aureus 6850 [3],only slightly decreased
same,intracellular amounts of S. aureus (S. aureus load),S. aureus 6850 [3],reduces
same,bacterial growth,S. aureus 6850 [8],inhibited; also recorded: reduced
same,bacterial titers without living cells,S. aureus 6850 [8],reduced
same,cell damage of cell layer (cell morphology),[9],much less damaged
same,bacterial titers in vivo (lung),"[4]; U0126 30 mg/kg/day i.p. daily from day 1, 30 mg/kg/day",significantly reduced
same,virus titers in vivo (lung),[5]; U0126 30 mg/kg/day i.p. daily from day 1,fail of reduced virus titers
same,IAV-induced CCL3 mRNA synthesis,CCL3,reduced
same,IAV-induced CCL5 mRNA synthesis,CCL5,further reduced
same,effect on MEK/ERK signalling (ERK1/2 phosphorylation),ERK-1/2 phosphorylation,inhibitory effect
same,viral protein synthesis (PB1),viral protein (PB1),reduction
Oc1ccc(-c2nc(-c3ccncc3)c(-c3ccc(F)cc3)[nH]2)cc1 [SB202190],IV replication (IV titers),[7]; [10],reduces
same,viral titers in presence of S. aureus,[7]; [10],reduces
same,IV replication (IV titers),[7]; [11],inhibitory effects
same,viral titers in presence of S. aureus,[7]; [11],reduced
